Experimental data published in patent US11001561B2, “Pyrimidinone derivatives as SHP2 antagonists” (MERCK PATENT GMBH, priority 2019, dated 2021).
Like-named read-outs stand apart in the source and are kept apart here.

Experiments:
[1] = Pharmacokinetics in mouse (oral / intravenous); format: in vivo; conditions: female CD1 mice; for clearance / Vd: mouse; for Vd: read-out: Vd ss
Method: Female CD1 mice (N=3) received a single oral (gavage) or a single intravenous (bolus) injection of compound. […] Consecutive blood samples were taken sub-lingually under isofluorane inhalation from animals after 0.083 (IV), 0.25, 0.5, 1, 2, 4, 6 and 24 h and were further processed to obtain plasma. Samples were protein precipitated and analysed by LC/MS/MS.

[2] = target: Full length SHP2 protein (Recombinant Human SHP-2) (Homo sapiens (Human), UniProt Q06124); assay: SHP2 biochemical assay (DiFMUP substrate, activating peptide IRSI_2pY)
Method: The inhibition of SHP2 by compounds of the invention was monitored using the surrogate substrate DiFMUP after protein activation by a peptide bearing two appropriately spaced phosphotyrosine. […] The generation of the DiFMU product by activated SHP2 was monitored through Fluorescence measurement with a PerkinElmer Envision reader. The inhibitor dose response curves were analyzed with Genedata Screener.

[3] = target: auto-activated mutant protein SHP2 E76K (Homo sapiens (Human), UniProt Q06124, E76K); assay: SHP2 active mutant E76K biochemical assay with and without activating peptide
Method: The inhibition of SHP2 by compounds of the invention was monitored using the surrogate substrate DiFMUP after protein activation by a peptide bearing two appropriately spaced phosphotyrosine. Full length SHP2 protein (Recombinant HumanSHP-2, E. coli derived Ser2Arg593, N-terminal 6His tag from R&D systems; 0.0.24 nM) was incubated with activating peptide, IRSI_2pY (New England Peptide, 140 nM) and DiFMUP (molecular probes, 80 uM) at RT in buffer (HEPES pH 7.2 60 mM, DDT 5 mM, KCl 75 mM, NaCl 75 mM, EDTA 1 mM, Tween 20 0.05%) in presence of compound (10 concentrations range, top concentration 50 μM) for 60 min. The generation of the DiFMU product by activated SHP2 was monitored through Fluorescence measurement with a PerkinElmer Envision reader. The inhibitor dose response curves were analyzed with Genedata Screener.

pERK1/2 in KYSE520 cells = assay: p-Erk cellular assay in KYSE520 (Mesoscale); format: cell-based; conditions: read-out: pERK1/2 in Cell KYSE520 IC50
Method: p-Erk Cellular Assay in KYSE520: The effect of SHP2 inhibitors on pERK level was assessed using phospho-specific antibody using Mesoscale quantification platform. For measuring change in pERK levels using mesoscale, 30,000 cells of KYSE520 cells were plated in 96-well tissue culture treated plate in 175 μl volume of media. After an overnight incubation at 37° C., various SHP2 inhibitors were added in different concentration to each well maintaining duplicate wells across plates and incubated with compounds for 2 h at 37° C. followed by a wash with ice cold PBS buffer. The cells were then lysed in lysis buffer and processed and analyzed for p-ERK/ERK as per manufacturer's instructions (Mesoscale discovery, cat No. […]-3).

[4] = target: Kv11.1 (hERG) ion channel (Homo sapiens (Human), UniProt Q12809); assay: hERG patch clamp in Kv11.1 transfected HEK293 cells; format: cell-based
Method: Inhibition of the ion channel hErg (or Kv11.1) current causes QT interval prolongation resulting in potentially fatal ventricular tachyarrhythmia called Torsade de Pointes.
hERG ion channel activity was assessed using a patch clamp technique in stable Kv11.1 (hERG) transfected human embryonic kidney cell line (HEK293). Whole cell recordings were carried out with an automated patch clamp device Patchliner™ from Nanion Technologies, Munich following manufacturer recommendation. Different concentrations of the test compound or reference, quinidine, were applied to whole cells suspension and current was measured using a pulse pattern with fixed amplitudes.

[5] = target: Recombinant human SHP2 protein (2-593) (Homo sapiens (Human), UniProt Q06124); assay: SPR binding assay; conditions: SPR, 25° C.
Method: The immobilization buffer contained 20 mM HEPES/NaOH (pH 7.4), 150 mM NaCl, 0.05% Tween 20. Inhibitors (stored as 10 mM stock solutions in 100% DMSO) were diluted in running buffer (20 mM HEPES/NaOH pH 7.4, 150 mM NaCl, 1 mM DTT, 5 mM MgCl2 0.1 mM EGTA, 0.05% Tween 20, 2% DMSO @25° C.) and analysed with a Biacore 4000 (Biacore AB, GE Healthcare Life Sciences, Uppsala, Sweden) using a 2-fold dilution series. The highest compound concentration varied according to the expected dissociation constant, but all compounds were tested at 10 different concentrations. Interaction analysis cycles were run at 30 μL/min and consisted of a 140 s sample injection followed by 600 s of buffer flow (dissociation phase). All sensograms were evaluated by first subtracting the binding response recorded from the control surface (reference spot), followed by subtracting a buffer blank injection. To determine kinetic rate constants, data sets were fitted to a simple 1:1 interaction model including a term for mass transport using numerical integration and nonlinear curve fitting. Equilibrium analysis was performed by fitting the response at the end of the association phase to a single-site binding isotherm.

Kyse-520 xenografts = assay: Kyse-520 xenograft (EGFR amplified esophageal cancer); conditions: H2D Rag2 mice, 0.8, 2.5 or 8 mg/kg daily oral gavage
Description: H2D Rag2 mice were inoculated with 5 million KYSE-520 cells mixed with matrigel.
In vivo efficacy of compound 74a in an EGFR amplified setting was investigated in Kyse-520 xenografts. H2D Rag2 mice were inoculated with 5 million KYSE-520 cells mixed with matrigel.

[6] = test system: MCP-1 production in U937 cells; assay: Cytokine release assay in U937 cells (MCP-1 AlphaLISA, IL-6 stimulation); format: cell-based; conditions: Homo sapiens, U-937; U937 cells stimulated with IL-6 (50 ng/mL) overnight
Method: Selected compounds were tested in a cytokine release assay in monocytic cells (U937) to test their anti-inflammatory properties. Cells were plated in a 96-well cell culture plate using serum-free media. The cells were treated with indicated concentrations of SHP-2 inhibitors for 30 minutes followed by overnight stimulation with recombinant IL-6 (50 ng/mL). The MCP-1 production was measured in the culture supernatant using a MCP-1 AlphaLISA kit (Perkin Elmer).

[7] = SHP-2 IC50 (nM) peptide, wild-type SHP-2, with activating peptide
[8] = activating peptide IRSI_2pY 140 nM, DiFMUP, 60 min, read-out: SHP-2 biochemical assay IC50
[9] = with activating peptide IRSI_2pY 140 nM, read-out: SHP-2 E76Z IC50 (nM) peptide
[10] = without activating peptide, read-out: SHP-2 E76Z IC50 (nM) No peptide
[11] = SHP-2 biochemical assay IC50 (μM), activating peptide IRSI_2pY 140 nM, DiFMUP, 60 min
[12] = SHP-2 E76Z IC50 (nM) No peptide, without activating peptide
[13] = SHP-2 E76Z IC50 (nM) peptide, with activating peptide IRSI_2pY 140 nM

Chain of auto-activated mutant protein SHP2 E76K (Q06124 whole entry E76K): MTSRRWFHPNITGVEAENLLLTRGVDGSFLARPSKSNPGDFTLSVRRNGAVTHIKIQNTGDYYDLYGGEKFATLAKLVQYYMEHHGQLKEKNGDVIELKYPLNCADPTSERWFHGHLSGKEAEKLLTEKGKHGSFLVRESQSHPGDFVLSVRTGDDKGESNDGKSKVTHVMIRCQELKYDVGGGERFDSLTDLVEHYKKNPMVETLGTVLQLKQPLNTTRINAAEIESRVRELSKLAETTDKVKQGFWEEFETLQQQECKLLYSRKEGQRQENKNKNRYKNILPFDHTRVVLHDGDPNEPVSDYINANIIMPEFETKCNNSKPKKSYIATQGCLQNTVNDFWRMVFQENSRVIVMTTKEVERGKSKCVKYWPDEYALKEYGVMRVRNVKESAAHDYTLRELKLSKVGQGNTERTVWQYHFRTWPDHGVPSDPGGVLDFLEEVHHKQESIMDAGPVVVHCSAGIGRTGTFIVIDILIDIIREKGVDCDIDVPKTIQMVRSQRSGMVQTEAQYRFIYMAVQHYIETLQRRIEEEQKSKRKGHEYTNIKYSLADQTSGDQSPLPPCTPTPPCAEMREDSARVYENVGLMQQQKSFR
Chain of Kv11.1 (hERG) ion channel (Q12809 whole entry): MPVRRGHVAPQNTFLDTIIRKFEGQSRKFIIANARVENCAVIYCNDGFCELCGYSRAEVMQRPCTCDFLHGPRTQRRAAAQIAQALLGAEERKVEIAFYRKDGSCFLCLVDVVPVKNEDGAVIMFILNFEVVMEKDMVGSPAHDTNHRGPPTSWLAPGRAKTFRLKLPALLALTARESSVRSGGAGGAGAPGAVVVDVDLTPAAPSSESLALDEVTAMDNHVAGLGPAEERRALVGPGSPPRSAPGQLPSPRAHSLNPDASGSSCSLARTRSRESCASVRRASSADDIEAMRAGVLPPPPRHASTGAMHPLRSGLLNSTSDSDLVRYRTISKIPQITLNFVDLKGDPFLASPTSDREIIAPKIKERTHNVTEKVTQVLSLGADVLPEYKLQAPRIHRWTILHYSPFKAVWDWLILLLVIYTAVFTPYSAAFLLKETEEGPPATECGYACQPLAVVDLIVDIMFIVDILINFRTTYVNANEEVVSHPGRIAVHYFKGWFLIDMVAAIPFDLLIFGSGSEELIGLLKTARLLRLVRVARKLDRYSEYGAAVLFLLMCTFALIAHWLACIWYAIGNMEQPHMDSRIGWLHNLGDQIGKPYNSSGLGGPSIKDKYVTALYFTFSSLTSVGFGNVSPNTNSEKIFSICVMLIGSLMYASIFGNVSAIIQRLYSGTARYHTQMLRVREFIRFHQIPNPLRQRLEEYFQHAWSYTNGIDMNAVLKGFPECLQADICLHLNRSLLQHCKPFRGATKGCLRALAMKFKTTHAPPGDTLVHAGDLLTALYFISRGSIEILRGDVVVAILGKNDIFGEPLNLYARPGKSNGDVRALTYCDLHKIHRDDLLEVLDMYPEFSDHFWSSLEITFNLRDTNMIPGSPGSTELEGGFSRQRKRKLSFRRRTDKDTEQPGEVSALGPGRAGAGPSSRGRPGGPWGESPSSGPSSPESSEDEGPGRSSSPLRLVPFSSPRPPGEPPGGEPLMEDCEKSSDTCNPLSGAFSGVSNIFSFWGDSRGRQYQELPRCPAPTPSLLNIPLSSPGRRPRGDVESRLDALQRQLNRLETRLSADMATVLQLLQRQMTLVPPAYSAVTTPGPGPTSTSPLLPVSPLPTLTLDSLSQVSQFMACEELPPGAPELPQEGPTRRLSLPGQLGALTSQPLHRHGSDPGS
Chain of Full length SHP2 protein (Recombinant Human SHP-2) (Q06124 2-593): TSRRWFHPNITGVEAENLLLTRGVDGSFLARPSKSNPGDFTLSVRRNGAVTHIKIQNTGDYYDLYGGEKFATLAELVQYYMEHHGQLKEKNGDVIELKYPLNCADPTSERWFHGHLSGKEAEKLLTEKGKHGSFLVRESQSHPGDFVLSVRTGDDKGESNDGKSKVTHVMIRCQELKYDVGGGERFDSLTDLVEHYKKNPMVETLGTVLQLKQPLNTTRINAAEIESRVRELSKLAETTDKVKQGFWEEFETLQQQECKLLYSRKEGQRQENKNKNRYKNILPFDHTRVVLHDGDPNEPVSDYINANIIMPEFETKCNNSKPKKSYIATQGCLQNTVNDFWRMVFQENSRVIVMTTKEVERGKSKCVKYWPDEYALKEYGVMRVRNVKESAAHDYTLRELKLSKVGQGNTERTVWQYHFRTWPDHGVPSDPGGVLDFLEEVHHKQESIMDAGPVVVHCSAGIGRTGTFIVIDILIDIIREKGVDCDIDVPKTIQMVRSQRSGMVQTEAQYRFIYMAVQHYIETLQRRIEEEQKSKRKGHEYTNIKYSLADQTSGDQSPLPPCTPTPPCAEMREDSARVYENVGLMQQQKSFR
Chain of Recombinant human SHP2 protein (2-593) (Q06124 2-593): as above

## Cc1nc(N2CCC3(CC2)CO[C@@H](C)[C@H]3N)cc(=O)n1-c1cccc(Cl)c1Cl (single isomer, unassigned) [Compound 3b]
[1]
  Fz: 85%
[1]; plasma, intravenous
  clearance: 8 mL/min/kg
  Vd: 2.77 L/kg

## Cc1c(N2CCC3(CC2)Cc2ncccc2[C@H]3N)nc(C)n(-c2cccc(Cl)c2Cl)c1=O (single isomer, unassigned) [Compound 66a]
[2]; [7]
  IC50: 48 nM
[2]; [8]
  IC50: 73 nM
[3]; [9]
  IC50: 200 nM
[3]; [10]
  IC50: 97 nM

## Cc1c(N2CCC3(CC2)Cc2ncccc2[C@H]3N)nc(C)n(-c2cccc(Cl)c2Cl)c1=O (single isomer, unassigned) [Compound 66b]
[2]; [7]
  IC50: 0.7 nM
[2]; [11]
  IC50: 1 nM
pERK1/2 in KYSE520 cells; Homo sapiens, KYSE-520, 2 h
  IC50: 5 nM
[4]
  Ki: 7500 nM
[4]; human
  Split between hErg and cell activity Ki (patch Clamp)/IC50 (KYSE): 580
[1]
  Fz: 100%
[1]; plasma, intravenous
  clearance: 8.33 mL/min/kg
  Vd: 1.96 L/kg
[3]; [12]
  IC50: 1.9 nM
[3]; [13]
  IC50: 1.9 nM

## Cc1c(N2CCC3(CC2)Oc2ccccc2[C@H]3N)nc(C)n(-c2cccc(Cl)c2Cl)c1=O (single isomer, unassigned) [Compound 81b]
[2]; [7]
  IC50: 0.3 nM
[2]; [8]
  IC50: 1.4 nM
pERK1/2 in KYSE520 cells; Homo sapiens, KYSE-520, 2 h
  IC50: 6.6 nM
[1]
  Fz: 48%
[1]; plasma, intravenous
  clearance: 2.5 mL/min/kg
  Vd: 0.68 L/kg
[3]; [12]
  IC50: 0.5 nM
[3]; [13]
  IC50: 1.1 nM

## Cc1c(N2CCC3(CC2)Cc2ccccc2[C@H]3N)nc(C)n(-c2cccc(Cl)c2Cl)c1=O [Compound 74a, (3M)-6-[(1S)-1-amino-1,3-dihydrospiro[indene-2,4′-piperidin]-1′-yl]-3-(2,3-dichlorophenyl)-2,5-dimethyl-3,4-dihydropyrimidin-4-one]
pERK1/2 in KYSE520 cells; 2 h
  IC50: 2 nM
[4]
  Ki: 1200 nM
  Split between hErg and cell activity Ki (patch Clamp)/IC50 (KYSE): 704
[1]
  Fz: 100%
[1]; plasma, intravenous
  clearance: 8.33 mL/min/kg
  Vd: 5.1 L/kg
[5]
  koff: < 0.0001 s⁻¹
  residence time: > 160 min
Kyse-520 xenografts
  tolerability: All doses were well tolerated

## Cc1c(N2CCC3(CC2)C[C@@H](C)C[C@H]3N)nc(C)n(-c2cccc(Cl)c2Cl)c1=O [Compound 77, (3M)-6-[(1R,3R)-1-amino-3-methyl-8-azaspiro[4.5]decan-8-yl]-3-(2,3-dichlorophenyl)-2,5-dimethyl-3,4-dihydropyrimidin-4-one]
[2]; [11]
  IC50: 6 nM
pERK1/2 in KYSE520 cells; Homo sapiens, KYSE-520, 2 h
  IC50: 74 nM
[6]
  IC50: 731 nM

## [2H]C([2H])([2H])c1c(N2CCC3(CC2)Cc2ccccc2[C@H]3N)nc(C)n(-c2cccc(Cl)c2Cl)c1=O [Compound 106, 6-[(1S)-1-amino-1,3-dihydrospiro[indene-2,4′-piperidin]-1′-yl]-3-(2,3-dichlorophenyl)-5-(2H3)methyl-2-methyl-3,4-dihydropyrimidin-4-one]
[2]; [7]
  IC50: 1.7 nM
[2]; [11]
  IC50: 6 nM
pERK1/2 in KYSE520 cells; Homo sapiens, KYSE-520, 2 h
  IC50: 10 nM
[3]; [9]
  IC50: 6.4 nM
[3]; [10]
  IC50: 3.5 nM

## Cc1c(N2CCC3(CC2)Cc2ccccc2[C@H]3N)nc(C)n(-c2cccc(C#N)c2Cl)c1=O [Compound 108, 3-4-[(1S)-1-amino-1,3-dihydrospiro[indene-2,4′-piperidin]-1′-yl]-2,5-dimethyl-6-oxo-1,6-dihydropyrimidin-1-yl-2-chlorobenzonitrile]
[2]; [11]
  IC50: 7 nM
pERK1/2 in KYSE520 cells; Homo sapiens, KYSE-520, 2 h
  IC50: 32 nM

## Cc1c(N2CCC3(CC2)Cc2ccccc2[C@H]3N)nc(C)n(-c2ccc(F)c(Cl)c2Cl)c1=O [Compound 109, 6-((1S)-1-amino-1,3-dihydrospiro[indene-2,4′-piperidin]-1′-yl]-3-(2,3-dichloro-4-fluorophenyl)-2,5-dimethyl-3,4-dihydropyrimidin-4-one]
[2]; [8]
  IC50: 2 nM
pERK1/2 in KYSE520 cells; Homo sapiens, KYSE-520, 2 h
  IC50: 4 nM

## Cc1c(F)ccc(-n2c(C)nc(N3CCC4(CC3)Cc3ccccc3[C@H]4N)c(C)c2=O)c1Cl [Compound 110, 6-[(1S)-1-amino-1,3-dihydrospiro[indene-2,4′-piperidin]-1′-yl]-3-(2-chloro-4-fluoro-3-methylphenyl)-2,5-dimethyl-3,4-dihydropyrimidin-4-one]
[2]; [8]
  IC50: 2 nM
pERK1/2 in KYSE520 cells; Homo sapiens, KYSE-520, 2 h
  IC50: 7 nM

## Cc1c(N2CCC3(CC2)Cc2ccccc2[C@H]3N)nc(C)n(-c2cccc(F)c2Cl)c1=O [Compound 112, 6-[(1S)-1-amino-1,3-dihydrospiro[indene-2,4′-piperidin]-1′-yl]-3-(2-chloro-3-fluorophenyl)-2,5-dimethyl-3,4-dihydropyrimidin-4-one]
[2]; [8]
  IC50: 4 nM
pERK1/2 in KYSE520 cells; Homo sapiens, KYSE-520, 2 h
  IC50: 14 nM

## Cc1c(N2CCC3(CC2)Cc2ccccc2[C@H]3N)nc(C)n(-c2ccc(F)c(F)c2Cl)c1=O [Compound 113, 6-[(1S)-1-amino-1,3-dihydrospiro[indene-2,4′-piperidin]-1′-yl)-3-(2-chloro-3,4-difluorophenyl)-2,5-dimethyl-3,4-dihydropyrimidin-4-one]
[2]; [8]
  IC50: 6 nM
pERK1/2 in KYSE520 cells; Homo sapiens, KYSE-520, 2 h
  IC50: 15 nM

## Cc1c(N2CCC3(CC2)CO[C@@H](C)[C@H]3N)nc(N)n(-c2cccc(Cl)c2Cl)c1=O [Compound 116, 2-Amino-6-((3S,4S)-4-amino-3-methyl-2-oxa-8-aza-spiro[4.5]dec-8-yl)-3-(2,3-dichloro-phenyl)-5-methyl-3H-pyrimidin-4-one]
[2]; [8]
  IC50: 200 nM
pERK1/2 in KYSE520 cells; Homo sapiens, KYSE-520, 2 h
  IC50: 2190 nM

## Cc1c(N2CCC3(CC2)Cc2ccccc2[C@H]3N)nc(N)n(-c2cccc(Cl)c2Cl)c1=O [Compound 117, 2-amino-6-[(3S)-3-amino-1,3-dihydrospiro[indene-2,4′-piperidin]-1′-yl]-3-(2,3-dichlorophenyl)-5-methyl-3,4-dihydropyrimidin-4-one]
[2]; [8]
  IC50: 15 nM
pERK1/2 in KYSE520 cells; Homo sapiens, KYSE-520, 2 h
  IC50: 6 nM
[4]
  Ki: 2500 nM
[4]; human
  Split between hErg and cell activity Ki (patch Clamp)/IC50 (KYSE): 417

## Nc1nc(N2CCC3(CC2)Cc2ccccc2[C@H]3N)cc(=O)n1-c1cccc(Cl)c1Cl [Compound 118, 2-amino-6-[(3S)-3-amino-1,3-dihydrospiro[indene-2,4′-piperidin]-1′-yl]-3-(2,3-dichlorophenyl)-3,4-dihydropyrimidin-4-one]
[2]; [8]
  IC50: 16 nM
pERK1/2 in KYSE520 cells; Homo sapiens, KYSE-520, 2 h
  IC50: 51 nM

## Cc1nc(N2CCC3(CC2)CO[C@@H](C)[C@H]3N)c(CO)nc1-c1cccc(Cl)c1Cl [RMC-4550, reference compound]
[4]
  Ki: 600 nM
[1]
  Fz: 86%
[1]; in vivo
  Vd: 6.1 L/kg
[1]; plasma, intravenous
  clearance: 20 mL/min/kg

## CC1(N)CCN(c2cnc(-c3cccc(Cl)c3Cl)c(N)n2)CC1 [SHP-099, reference compound]
[1]; in vivo
  clearance: 95 mL/min/kg
  Vd: 5 L/kg
